In ChEMBL document CHEMBL1147029, “Probing binding requirements of NAD kinase with modified substrate (NAD) analogues” (Bioorg Med Chem Lett, 2007):

What follows are compounds tested against T1, NAD kinase (Mycobacterium tuberculosis) (UniProt P9WHV7) (assay: Inhibition of Mycobacterium tuberculosis NAD kinase at 2 mM).
T1 sequence (whole entry): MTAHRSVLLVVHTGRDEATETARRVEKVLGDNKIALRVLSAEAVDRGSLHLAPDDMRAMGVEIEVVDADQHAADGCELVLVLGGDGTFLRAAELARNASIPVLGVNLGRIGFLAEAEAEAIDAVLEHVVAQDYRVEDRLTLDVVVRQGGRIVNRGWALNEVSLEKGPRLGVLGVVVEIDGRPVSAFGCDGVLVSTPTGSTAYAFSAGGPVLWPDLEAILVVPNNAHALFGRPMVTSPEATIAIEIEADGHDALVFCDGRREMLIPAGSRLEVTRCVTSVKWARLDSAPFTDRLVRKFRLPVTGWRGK
In the case of `NC(=O)c1cccc([C@@H]2O[C@H](COP(=O)(O)OP(=O)(O)OC[C@H]3O[C@@H](n4cnc5c(N)ncnc54)[C@H](O)[C@@H]3O)[C@@H](O)[C@H]2O)c1`, the inhibition is reported as 37%.

The compounds below were run against T1, NAD kinase (Mycobacterium tuberculosis) (assay: Inhibition of Mycobacterium tuberculosis NAD kinase at 1 mM).
`O=C(CBr)c1cccnc1` was tested, and the inhibition was 30%.
For `O=C(CBr)c1ccncc1`, the inhibition was 40%.
`NC(=O)c1ccc[n+]([C@@H]2O[C@H](COP(=O)(O)OP(=O)(O)OC[C@H]3O[C@@H](n4cnc5c(N)ncnc54)[C@@H](O)[C@@H]3O)[C@@H](O)[C@H]2O)c1` was tested, and the inhibition was 40%.
`NC(=O)c1ccc[n+]([C@@H]2O[C@H](COP(=O)(O)OP(=O)(O)OC[C@H]3O[C@@H](n4cnc5c(N)ncnc54)[C@H](F)[C@@H]3O)[C@@H](O)[C@H]2O)c1` showed an inhibition of less than 10%.
For `O=C(CBr)c1ccccn1`, the inhibition was 63%.
`NC(=O)c1cccc([C@@H]2O[C@H](COP(=O)(O)OP(=O)(O)OC[C@H]3O[C@@H](n4cnc5c(N)ncnc54)[C@H](O)[C@@H]3O)[C@@H](O)[C@H]2O)c1` gave an inhibition of less than 10%.
Work on `NC(=O)c1ccc[n+]([C@@H]2O[C@H](COP(=O)(O)OP(=O)(O)OC[C@H]3O[C@@H](n4cnc5c(N)ncnc54)[C@@H](F)[C@@H]3O)[C@@H](O)[C@H]2O)c1` yielded an inhibition of less than 10%.
